The values below come from patent US20190151283A1, “NON-STEROIDAL SELECTIVE GLUCOCORTICOID RECEPTOR AGONISTIC MODULATORS (SEGRAMs) AND USES THEREOF” (ASSOCIATION POUR LA RECHERCHE À L'IGBMC (ARI), priority 2017, published 2019).

Holding throughout (format): in vivo, mouse
One series has as its system Male mice (DBA-1 strain). The series can be described thus: Collagen-induced arthritis (CIA). The conditions noted are these: for hind paw thickness at the ankle level: i.p. 1 mg/kg daily for 10 days (T0 to T10). On the procedure: Mice were treated with collagen to induce a Th17 rheumatoid arthritis-like inflammation as described by Inglis et al. (2007. Arthritis Res Ther. 9(5):R113) and Geboes et al. (2009. Arthritis Rheum. 60(2):390-5).
Male mice (DBA-1 strain) were subcutaneously-injected with 100 μg collagen per mouse on D0. The hind paw thickness at the ankle level was regularly measured with a caliper. When the ankle thickness had reached around 4 mm (T0, i.e., 30 to 50 days after the collagen injection on D0), mice were daily intraperitoneally-injected for 10 days (T0 to T10) with either vehicle (NaCl 0.9%), Dex, CpdX, CpdX(eA), CpdX(eB), CpdX-D3, CpdX-D3(eA) or CpdX-D3(eB) (1 mg/kg body weight diluted in NaCl 0.9%), and the hind paw thickness at the ankle level was daily measured with a caliper. Pictures of the hind paws were taken at days T0 and T10 (before and after the treatment with either Vehicle, Dex, CpdX, CpdX(eA), CpdX(eB), CpdX-D3, CpdX-D3(eA) or CpdX-D3(eB)), in order to assess the course of swelling.
RNA transcripts were extracted from whole hind paws of collagen-untreated and collagen-treated mice at T0 and T10. IL-1β, IL-6, IL-17a, IL-17f and TNFα transcripts were analyzed by q-RT-PCR.

Series [1] has as its system B6 male mice. The series can be described thus: Insulin level, insulin tolerance test and liver insulin signalling after three-month treatment. To be noted: for insulin resistance: three months, conclusion. How it is done: B6 male mice (8-week-old) were subjected daily for three months to a subcutaneous injection of either vehicle (NaCl 0.9%), Dex, CpdX, CpdX(eA), CpdX(eB), CpdX-D3, CpdX-D3(eA) or CpdX-D3(eB) (1 mg/kg body weight, diluted in vehicle). After three months, the blood was collected at 10 a.m. by retro-orbital puncture in lithium-heparin coated vials, and the plasmatic level of insulin was determined.
For the intraperitoneal insulin tolerance test (IPITT), mice were fasted for 6 hours before test. The blood glucose concentration was measured both before (T0) and during a one-hour period after insulin i.p. injection (0.75 U/kg body weight).
Following this three-month treatment, liver samples were harvested and lysed in the RIPA buffer (20 mM Tris pH 8, 150 mM NaCl, 10% glycerol, 1% NP-40 and 2 mM EDTA). Antibodies from Cell Signaling were used to assess by Western-Blotting the relative level of p-IRS1 (S318), IRS-1, p-AKT (S473) and AKT.

Series [2] relates to B6 male mice. The series can be described thus: Corticosterone synthesis and adrenal gland after three-month treatment. The conditions noted are these: for plasmatic corticosterone level: at 10 a.m., compared to control mice (Vehicle); for cortex layers, most notably the fasciculata zone, of the adrenal glands / glomerulosa zone of the adrenal cortex / transcripts of Cyp11a, Cyp11b1 and HSD3β genes in adrenal glands: three months; for cortex layers, most notably the fasciculata zone, of the adrenal glands / glomerulosa zone of the adrenal cortex: histology; for glomerulosa zone of the adrenal cortex: 'but not' = not decreased; for transcripts of Cyp11a, Cyp11b1 and HSD3β genes in adrenal glands: q-RT-PCR. On the procedure:
B6 male mice (8-week-old) were daily subjected for three months to either a subcutaneous injection of vehicle (NaCl 0.9%), Dex, CpdX, CpdX(eA), CpdX(eB), CpdX-D3, CpdX-D3(eA) or CpdX-D3(eB) (1 mg/kg body weight, diluted in vehicle).
Following this long-term treatment, blood was collected at 10 a.m. and 6 p.m. by retro-orbital puncture in lithium-heparin coated vials, and the plasmatic level of corticosterone was determined. Adrenal glands were harvested and weighted. RNA transcripts were extracted and transcripts of the Cyp11a, Cyp11b1, Cyp11b2 and HSD3β genes were analyzed by q-RT-PCR. Histological analyses of the adrenal glands were also carried out.

The subject of series [3] is Balb/C mice. The series can be described thus: Ovalbumin (OVA)-induced allergic conjunctivitis. The conditions noted are these: 0.1% instillation D22 to D24, 20 minutes after the last OVA challenge. How it is done:
To investigate the anti-inflammatory effect of CpdX or CpdX-D3 on an allergic conjunctivitis, Balb/C mice were intraperitoneally sensitized with 50 μg OVA with alum on both days D1 and D8, and then challenged from D15 to D21 with 250 μg OVA in 5 μL of sterilized vehicle (0.9% NaCl), which were directly instilled onto the conjunctival sac. From D22 to D24, mice were divided into several groups, and received instillations with either OVA alone, OVA together with 0.1% of either Dex, CpdX, CpdX(eA), CpdX(eB), CpdX-D3, CpdX-D3(eA) or CpdX-D3(eB).
The clinical appearance of mouse eyes was evaluated 20 minutes after the last instillation on D24. Clinical signs (conjunctival hyperemia, lid edema and tearing) were scored to evaluate the occurrence and severity of conjunctivitis as described by Gimenes et al. (2015. Experimental Eye Research 134:24-32). Parameters were graded on a scale ranging from 0 to 3, (0=absence, 1=mild, 2=moderate, and 3=severe symptoms), each animal receiving a total clinical score ranging from 0 to 9. The data were expressed as mean±SEM with at least four mice per treatment.

In series [4] the test system is Balb/C mice. The series can be described thus: Dextran sodium sulfate (DSS)-induced ulcerative colitis. To be noted: for pro-inflammatory genes overexpressed in DSS-induced ulcerative colitis (IL-1β, IL-6, IL-17a, IL-17f, TSLP, MMP13): colon, q-RT-PCR, D14; for colonic villus/crypt structure / mucosal and submucosal cell infiltration: i.p. 1 mg/kg on D11, D12, D13, H&E histology. On the procedure: To investigate the anti-inflammatory activity of CpdX and CpdX-D3 on a Th17 ulcerative colitis, Balb/C mice were treated with 3% DSS in drinking water for 13 days, with or without an intraperitoneal administration of either Dex, CpdX, CpdX(eA), CpdX(eB), CpdX-D3, CpdX-D3(eA) or CpdX-D3(eB) (1 mg/kg of body weight) on D11, D12 and D13.
At D14, RNA transcripts were extracted from mouse colons. IL-1β, IL-6, IL-17a, IL-17f, TSLP and MMP13 transcripts were analyzed by q-RT-PCR. Colon samples were also harvested for histological analyses (with H&E staining).

In series [5] the test system is B6 male mice. The series can be described thus: Organ weights (thymus, spleen, adrenal gland, kidney) after three-month treatment. To be noted: s.c. 1 mg/kg daily, three months. On the procedure:
B6 male mice (8-week-old) were daily subjected for three months to a subcutaneous injection of either vehicle (NaCl 0.9%), Dex, CpdX, CpdX(eA), CpdX(eB), CpdX-D3, CpdX-D3(eA) or CpdX-D3(eB) (1 mg/kg body weight, diluted in vehicle). Following these treatments, four organs (thymus, spleen, adrenal gland and kidney) were harvested and weighted.

For the molecule `[2H]C([2H])([2H])Oc1ccc(F)cc1C(C)(C)CC(O)(CNc1ccc2c(c1)COC2=O)C(F)(F)F` (centres unmarked) [CpdX-D3(eB), 5-{4-[2-(methoxy-D3)-5-fluorophenyl]-2-hydroxy-4-methyl-2-(trifluoromethyl)pentylamino}isobenzofuran-1(3H)-one], the “hind paw thickness at the ankle level” value in the series with Male mice (DBA-1 strain) (1 mg/kg) is “no such decrease”. Besides, in the series with B6 male mice [1], the insulin resistance result is “does not induce”. Further, in the series on B6 male mice [2], the plasmatic corticosterone level result is listed as “much higher”; the “cortex layers, most notably the fasciculata zone, of the adrenal glands” value was “markedly increased”; the “glomerulosa zone of the adrenal cortex” value is given as “but not”; the “transcripts of Cyp11a, Cyp11b1 and HSD3β genes in adrenal glands” value was “increased”. Further, in the series with Balb/C mice [3], the “clinical signs of allergic conjunctivitis (conjunctival hyperemia, lid edema and tearing)” value is “considerably reduced”. For the same molecule, in the series with Balb/C mice [4], the “pro-inflammatory genes overexpressed in DSS-induced ulcerative colitis (IL-1β, IL-6, IL-17a, IL-17f, TSLP, MMP13)” value is recorded as “similarly repressed”; the colonic villus/crypt structure result is listed as “almost reestablished”; the “mucosal and submucosal cell infiltration” value is reported as “significantly decreased”. Besides, in the series with B6 male mice [5], the spleen weight entry is “not decreased”, the “thymus apoptosis / thymus found” value is “did not result in any significant thymus apoptosis” and the “weight of the adrenal gland” value was “increased”.

Consider `COc1ccc(F)cc1C(C)(C)CC(O)(CNc1ccc2c(c1)COC2=O)C(F)(F)F` (racemic) [CpdX, 5-[4-(5-fluoro-2-methoxyphenyl)-2-hydroxy-4-methyl-2-(trifluoromethyl)pentylamino]-isobenzofuran-1(3H)-one], for which the “hind paw thickness at the ankle level” value in the series with Male mice (DBA-1 strain) was “rapid decrease”. Further, the “RNA transcripts of the pro-inflammatory genes expressed in the hind paws (IL-1β, IL-6, IL-17a, IL-17f, TNFα)” value with Male mice (DBA-1 strain) (q-RT-PCR, T10, 'but not' = not repressed) is reported as “similarly repressed”. Further, the “hind paw thickness, difference compared to the Dex treatment” value with Male mice (DBA-1 strain) (student t test, FIG. 17 legend) is listed as “not significant”. In addition, in the series on B6 male mice [1], the insulin resistance result was “does not induce”. The “phosphorylated insulin receptor substrate 1 (p-IRS1 S318) in liver extracts” value in the series with B6 male mice [1] (western-blot, 'but not' = no decrease) is “but not”. Moreover, in the series with B6 male mice [2], the plasmatic corticosterone level result is given as “much higher”; the “cortex layers, most notably the fasciculata zone, of the adrenal glands” value was “markedly increased”; the “glomerulosa zone of the adrenal cortex” value is recorded as “but not”; the “transcripts of Cyp11a, Cyp11b1 and HSD3β genes in adrenal glands” value is recorded as “increased”. In the series on Balb/C mice [3], the “clinical signs of allergic conjunctivitis (conjunctival hyperemia, lid edema and tearing)” value is “considerably reduced”. In the series with Balb/C mice [4], the “pro-inflammatory genes overexpressed in DSS-induced ulcerative colitis (IL-1β, IL-6, IL-17a, IL-17f, TSLP, MMP13)” value was “similarly repressed”; the colonic villus/crypt structure entry is “almost reestablished”; the “mucosal and submucosal cell infiltration” value is on record as “significantly decreased”. Moreover, in the series on B6 male mice [5], the spleen weight result is listed as “not decreased”, the “thymus apoptosis / thymus found” value is listed as “did not result in any significant thymus apoptosis” and the “weight of the adrenal gland” value is “increased”.
